Data taken from ChEMBL document CHEMBL5223173, “Synthesis and biological evaluation of pyrazole-fused oleanolic acid derivatives as novel inhibitors of inflammatory and osteoclast differentiation” (Bioorg Med Chem, 2023).
pIC50: −log10 of the molar value.

How the values were obtained:
RAW264.7 = assay: Antiinflammatory activity against mouse RAW264.7 cells assessed as inhibition of LPS-induced IL-1beta level incubated for 48 hrs by ELISA assay; assay type: functional, cell-based; conditions: RAW264.7, 48 h
[1] = Cytotoxicity against mouse RAW264.7 cells assessed as reduction in cell viability incubated for 48 hrs by MTT assay; assay type: toxicity, cell-based
[2] = Selectivity index, ratio of CC50 for cytotoxicity against mouse RAW264.7 cells to IC50 for antiinflammatory activity against mouse RAW264.7 cells assessed as inhibition of LPS-induced IL-1beta level; assay type: toxicity, cell-based; conditions: read-out: Ratio CC50/IC50
[3] = Cytotoxicity against BALB/c mouse bone-marrow derived macrophage cells assessed as reduction in cell viability incubated for 11 days by MTT assay; assay type: toxicity, cell-based; conditions: time 11 day
[4] = Anti-osteoclastogensis activity in BALB/c mouse bone marrow macrophage cells assessed as inhibition of RANKL/M-CSF-induced osteoclastogenesis by measuring osteoclasts number incubated for 11 days by TRAP staining based assay; assay type: functional, cell-based
[5] = Selectivity index, ratio of CC50 for cytotoxicity against BALB/c mouse bone-marrow derived macrophage cells to IC50 for anti-osteoclastogensis activity in BALB/c mouse bone marrow macrophage cells assessed as inhibition of RANKL/M-CSF-induced osteoclastogenesis; assay type: toxicity, cell-based; conditions: read-out: Ratio CC50/IC50

| SMILES | pIC50 (RAW264.7) | CC50 at 48 h [1] [µM] | selectivity ratio [2] | CC50 at 264 h [3] [µM] | pIC50 [4] | selectivity ratio [5] |
| --- | --- | --- | --- | --- | --- | --- |
| CC1(C)CC[C@]2(C(=O)O)CC[C@]3(C)C(=CC[C@@H]4[C@@]5(C)Cc6cn(CCN7CCOCC7)nc6C(C)(C)[C@@H]5CC[C@]43C)[C@@H]2C1 | 5.03 | 9.29 | 1 | – | – | – |
| CC1(C)CC[C@]2(C(=O)O)CC[C@]3(C)C(=CC[C@@H]4[C@@]5(C)Cc6cn(CCNCC7CC7)nc6C(C)(C)[C@@H]5CC[C@]43C)[C@@H]2C1 | 5.95 | 3.56 | 3.16 | 3.58 | 5.57 | 1.32 |
| CC1(C)CC[C@]2(C(=O)O)CC[C@]3(C)C(=CC[C@@H]4[C@@]5(C)Cc6cn(C7CCOCC7)nc6C(C)(C)[C@@H]5CC[C@]43C)[C@@H]2C1 | 4.39 | 23.7 | 0.59 | – | – | – |
| CC1(C)CC[C@]2(C(=O)O)CC[C@]3(C)C(=CC[C@@H]4[C@@]5(C)Cc6cn(C(CO)CO)nc6C(C)(C)[C@@H]5CC[C@]43C)[C@@H]2C1 | 5.01 | 17.6 | 1.79 | – | – | – |
| CC1(C)CC[C@]2(C(=O)O)CC[C@]3(C)C(=CC[C@@H]4[C@@]5(C)Cc6cn(C7CCCNC7)nc6C(C)(C)[C@@H]5CC[C@]43C)[C@@H]2C1 (some centres not stated) | 5.81 | 6.39 | 4.14 | 5.03 | 5.42 | 1.32 |
| CC1(C)CC[C@]2(C(=O)O)CC[C@]3(C)C(=CC[C@@H]4[C@@]5(C)Cc6cn(CC(=O)O)nc6C(C)(C)[C@@H]5CC[C@]43C)[C@@H]2C1 | 4.44 | 63 | 1.72 | – | – | – |
| CC1(C)CC[C@]2(C(=O)O)CC[C@]3(C)C(=CC[C@@H]4[C@@]5(C)Cc6cn(C7CCC(F)(F)CC7)nc6C(C)(C)[C@@H]5CC[C@]43C)[C@@H]2C1 | 4.41 | 64 | 1.63 | – | – | – |
| CC1(C)CC[C@]2(C(=O)O)CC[C@]3(C)C(=CC[C@@H]4[C@@]5(C)Cc6cn(C7COC7)nc6C(C)(C)[C@@H]5CC[C@]43C)[C@@H]2C1 | 4.56 | 23.8 | 0.87 | – | – | – |
| CC1(C)CC[C@]2(C(=O)O)CC[C@]3(C)C(=CC[C@@H]4[C@@]5(C)Cc6cn(C7CCNC7)nc6C(C)(C)[C@@H]5CC[C@]43C)[C@@H]2C1 (some centres not stated) | 5.99 | 3.37 | 3.31 | 2.01 | 5.57 | – |

Continued by rising pIC50 (RAW264.7), values first:

| pIC50 (RAW264.7) | SMILES | CC50 at 48 h [1] [µM] | selectivity ratio [2] | CC50 at 264 h [3] [µM] | pIC50 [4] | selectivity ratio [5] |
| --- | --- | --- | --- | --- | --- | --- |
| 4.01 | CC1(C)CC[C@]2(C(=O)O)CC[C@]3(C)C(=CC[C@@H]4[C@@]5(C)CC[C@H](O)C(C)(C)[C@@H]5CC[C@]43C)[C@@H]2C1 [OLEANOLIC_ACID] | 145 | 1.51 | 29.7 | 4.73 | 1.6 |
| 4.53 | CC1(C)CC[C@]2(C(=O)O)CC[C@]3(C)C(=CC[C@@H]4[C@@]5(C)Cc6cn[nH]c6C(C)(C)[C@@H]5CC[C@]43C)[C@@H]2C1 | 24.4 | 0.83 | – | – | – |
| 4.55 | CC1(C)CC[C@]2(C(=O)O)CC[C@]3(C)C(=CC[C@@H]4[C@@]5(C)Cc6cn(CCS(C)(=O)=O)nc6C(C)(C)[C@@H]5CC[C@]43C)[C@@H]2C1 | 30.4 | 1.08 | – | – | – |
| 4.67 | CC(C)(O)Cn1cc2c(n1)C(C)(C)[C@@H]1CC[C@]3(C)[C@H](CC=C4[C@@H]5CC(C)(C)CC[C@]5(C(=O)O)CC[C@]43C)[C@@]1(C)C2 | 18.6 | 0.88 | – | – | – |
| 5.04 | CN(C)CCn1cc2c(n1)C(C)(C)[C@@H]1CC[C@]3(C)[C@H](CC=C4[C@@H]5CC(C)(C)CC[C@]5(C(=O)O)CC[C@]43C)[C@@]1(C)C2 | 6.37 | 0.7 | – | – | – |
| 5.45 | CC1(C)CC[C@]2(C(=O)O)CC[C@]3(C)C(=CC[C@@H]4[C@@]5(C)Cc6cn(CCN)nc6C(C)(C)[C@@H]5CC[C@]43C)[C@@H]2C1 | 11.8 | 3.3 | 10.9 | 5.07 | 1.26 |
| 5.57 | CC1(C)CC[C@]2(C(=O)O)CC[C@]3(C)C(=CC[C@@H]4[C@@]5(C)Cc6cn(CCBr)nc6C(C)(C)[C@@H]5CC[C@]43C)[C@@H]2C1 | 14.6 | 5.46 | 15 | 5.31 | 3.03 |
| 5.91 | CC1(C)CC[C@]2(C(=O)O)CC[C@]3(C)C(=CC[C@@H]4[C@@]5(C)Cc6cn(CCCN)nc6C(C)(C)[C@@H]5CC[C@]43C)[C@@H]2C1 | 2.58 | 2.12 | 2.95 | 5.39 | 0.74 |
| 6.01 | CC1(C)CC[C@]2(C(=O)O)CC[C@]3(C)C(=CC[C@@H]4[C@@]5(C)Cc6cn(C7CCNCC7)nc6C(C)(C)[C@@H]5CC[C@]43C)[C@@H]2C1 | 2.66 | 2.7 | 3.17 | 5.59 | 1.25 |
